Assay results published in patent US5635359A, “Method for measuring the activity of angiotensin converting enzyme in biological samples” (priority 1991, dated 1997).

Assays:
[1] = test system: angiotensin converting enzyme (ACE); test: Ratio of plasma Ang II/Ang I as in vivo ACE-activity after oral enalapril; design: species or system human; conditions: for In vivo ACE-activity (ratio of plasma Ang II to Ang I) as percent of baseline / Ratio Ang II/Ang I: mean ± SEM; for Ratio Ang II/Ang I: plasma, healthy humans, single oral dose 20 mg enalapril
Description: (§1) Ten normal volunteers aged 20 to 28 years (body weight 63 to 85 kg) participated in the study. On the study day, they came to the hospital at 7 a.m. and were installed in a supine position. At 8 a.m., the subjects ingested 20 mg enalapril, an inhibitor of angiotensin converting enzyme. Venous blood samples were collected before (time 0) and at 0.5, 1, 2, 4, 8 and 24 hours after enalapril intake. The subjects remained in supine position for one hour prior to blood sampling and no food intake was permitted within three hours prior to sampling.
(§2) For the measurement of Ang II (Nussberger J., Brunner D. B., Waeber B., Brunner H. R., Hypertension 1985; 7 (Suppl. I): 11-17) and immunoreactive Ang I (Nussberger J., Brunner D. B., Waeber B., Brunner H. R., Life Sci. 1988; 42:1683-1688), another 10 ml blood were collected on an inhibitor cocktail containing EDTA and renin inhibitor to prevent degradation and generation of these peptides in vitro. Samples were centrifuged at 4° C. and plasma aliquots of 2.2 ml snap frozen and stored as described above.
(§3) Plasma ACE-activity was also measured by an established method using as substrate synthetic carbobenzoxy-Phe-His-Leu at 1.8 mM concentration (Piquilloud Y., Reinharz A., Roth M.. Biochem. Biophys. Acta 1970; 206: 136-142). The ratio of the plasma concentrations Ang II/Ang I was used for estimation of ACE-activity "in vivo" (Nussberger J., Juillerat L., Perret F., Waeber B., Bellet M., Brunner H. R., Menard J., Am Heart J. 1989; 117: 717-722).

[2] = test system: angiotensin II; test: Plasma angiotensin II concentration after oral enalapril; assay type: in vivo, human; conditions: healthy humans, single oral dose 20 mg enalapril, mean ± SEM
Description: as §1, §2

[3] = test system: angiotensin I; test: Plasma angiotensin I concentration after oral enalapril; assay type: in vivo, human; conditions: healthy humans, single oral dose 20 mg enalapril, mean ± SEM
Description: as §1, §2

[4] = test system: angiotensin converting enzyme (ACE); test: Plasma ACE-activity, trapping-assay (Ang I substrate, monoclonal antibody TRAP, RIA) after oral enalapril; assay type: in vivo, human; conditions: for ACE-activity measured in vitro with the trapping-assay as percent of baseline / ACE-Activity trapping-assay: mean ± SEM; for ACE-Activity trapping-assay: healthy humans, single oral dose 20 mg enalapril
Description: as §1
(§4) For the measurement of ACE-activity, blood samples (5 ml) were collected from the antecubital vein into prechilled glass tubes containing heparin (56 USP) and 25 μl renin inhibitor CGP 29287 (Ciba-Geigy, Basel, Switzerland) at 1 mM in water. Blood was centrifuged at 4° C. and 2000 g for 10 minutes and plasma aliquots of 0.5 ml were snap frozen in liquid nitrogen and stored at -70° C. until analyzed.
All procedures were done in an ice-water bath unless stated otherwise: Plasma was thawed and centrifuged at 4° C. and 40 μl supernatant was pipetted into a small polypropylene tube. Ten microliter monoclonal antibody TRAP (which was secreted from the Hybridoma cell line TRAP DSM ACC2003) was added (mouse ascites diluted 1:8400 in 3M tris buffer at pH 7.3). One picomole angiotensin I was added in 10 microliter albumin buffer containing--for blank determination only--EDTA at 0.2M concentration. After mixing and cold centrifugation in order to concentrate the mixture at the bottom of the tube (1 minute at 2000 g) samples were incubated in a water bath at 37° C. for 20 minutes. Incubation was stopped by returning the samples to the ice-water bath. Forty microliters of albumin buffer without/with 0.2M EDTA was added to blanks/samples in order to equalize conditions. Each tube (total 100 microliters) finally received 1 ml albumin buffer containing 1 fmol ^125 I-Ang II (2000 counts per minute) and EDTA at 0.02M concentration. After a 24 hour incubation at 4° C., antibody-bound and free Ang II were separated by adding 0.3 ml water containing 2% dextran-coated charcoal, mixing for 10 minutes, centrifugation at 4° C. (for 20 minutes at 6000 g) and decanting of the supernatant. Supernatant and pellet were counted in a ten-well scintillation counter (GammamasterR, Wallac, Turku, Finland) and generated Ang II was read from a simultaneously established standard curve.
For the standard curve, increasing amounts of unlabeled Ang II ranging from 16 to 4000 fmol in 40 μl pool plasma which contained unmeasurably low endogenous Ang I and Ang II and renin inhibitor CGP 29287 at 0.01 mM concentration; antibody in 3M tris buffer (10 μl) and 1000 fmol Ang I in EDTA-albumin buffer (10 μl) were added in order to obtain identical conditions as for the unknown samples.

[5] = test system: angiotensin converting enzyme (ACE); test: Plasma ACE-activity, conventional assay (substrate carbobenzoxy-Phe-His-Leu) after oral enalapril; assay type: in vivo, human; conditions: for Plasma ACE-activity by the conventional method, % of pretreatment values / ACE-Activity Conventional assay: mean ± SEM; for ACE-Activity Conventional assay: healthy humans, single oral dose 20 mg enalapril
Description: as §1, §4, §3

[6] = 4 hours post enalapril intake (20 mg oral)
[7] = 8 hours post enalapril intake (20 mg oral)
[8] = 24 hours post enalapril intake (20 mg oral)

## CCOC(=O)[C@H](CCc1ccccc1)N[C@@H](C)C(=O)N1CCC[C@H]1C(=O)O [enalapril]
[1]; [6]
  In vivo ACE-activity (ratio of plasma Ang II to Ang I) as percent of baseline: 2.1±0.3%
[1]; [7]
  In vivo ACE-activity (ratio of plasma Ang II to Ang I) as percent of baseline: 2.0±0.4%
[1]; [8]
  In vivo ACE-activity (ratio of plasma Ang II to Ang I) as percent of baseline: 21.9±5.0%
[1]; at 24 hours
  In vivo ACE-activity (ratio of plasma Ang II to Ang I) returned to: 22%
[1]; at peak inhibition
  Decrease of in vivo ACE-activity (ratio of plasma Ang II to Ang I): 98%
[1]; 0.5 h after intake
  Ratio Ang II/Ang I: .748 ± .101
[1]; 1 h after intake
  Ratio Ang II/Ang I: .315 ± .094
[1]; 2 h after intake
  Ratio Ang II/Ang I: .029 ± .006
[1]; 4 h after intake
  Ratio Ang II/Ang I: .015 ± .003
[1]; 8 h after intake
  Ratio Ang II/Ang I: .016 ± .003
[1]; 24 h after intake
  Ratio Ang II/Ang I: .147 ± .027
[2]; 0.5 h after intake
  Angiotensin II: 4.6 ± 0.5 fmol/mL
[2]; 1 h after intake
  Angiotensin II: 2.9 ± 0.5 fmol/mL
[2]; 2 h after intake
  Angiotensin II: 1.1 ± 0.3 fmol/mL
[2]; 4 h after intake
  Angiotensin II: 1.0 ± 0.2 fmol/mL
[2]; 8 h after intake
  Angiotensin II: 1.6 ± 0.4 fmol/mL
[2]; 24 h after intake
  Angiotensin II: 3.8 ± 0.5 fmol/mL
[3]; 0.5 h after intake
  Angiotensin I: 7.3 ± 1.5 fmol/mL
[3]; 1 h after intake
  Angiotensin I: 13.5 ± 3.0 fmol/mL
[3]; 2 h after intake
  Angiotensin I: 45.7 ± 12.9 fmol/mL
[3]; 4 h after intake
  Angiotensin I: 66.8 ± 17.6 fmol/mL
[3]; 8 h after intake
  Angiotensin I: 76.6 ± 15.9 fmol/mL
[3]; 24 h after intake
  Angiotensin I: 32.1 ± 6.4 fmol/mL
[4]; [6]
  ACE-activity measured in vitro with the trapping-assay as percent of baseline: 3.6±2.4%
[4]; [7]
  ACE-activity measured in vitro with the trapping-assay as percent of baseline: 1.3±1.3%
[4]; [8]
  ACE-activity measured in vitro with the trapping-assay as percent of baseline: 27.4±3.4%
[4]; at 24 hours
  Plasma ACE-activity measured in vitro, trapping method, returned to: 27%
[4]; at peak inhibition
  Decrease of plasma ACE-activity measured in vitro, trapping method: 99%
[4]; 0.5 h after intake
  ACE-Activity trapping-assay: 295 ± 27 fmol/mL/min
[4]; 1 h after intake
  ACE-Activity trapping-assay: 107 ± 17 fmol/mL/min
[4]; 2 h after intake
  ACE-Activity trapping-assay: 28 ± 8 fmol/mL/min
[4]; 4 h after intake
  ACE-Activity trapping-assay: 15 ± 10 fmol/mL/min
[4]; 8 h after intake
  ACE-Activity trapping-assay: 5 ± 5 fmol/mL/min
[4]; 24 h after intake
  ACE-Activity trapping-assay: 87 ± 10 fmol/mL/min
[5]; 4 hours after enalapril administration (20 mg oral)
  Plasma ACE-activity by the conventional method, % of pretreatment values: 16.5±1.7%
[5]; 8 hours after enalapril administration (20 mg oral)
  Plasma ACE-activity by the conventional method, % of pretreatment values: 20.8±1.7%
[5]; 24 hours after enalapril administration (20 mg oral)
  Plasma ACE-activity by the conventional method, % of pretreatment values: 62.6±1.6%
[5]; at 24 hours
  ACE-activity, conventional method, return towards baseline: 66%
[5]; at peak inhibition
  Peak ACE-inhibition, decrease from baseline, conventional method: 83%
[5]; 0.5 h after intake
  ACE-Activity Conventional assay: 18.1 ± 1.7 nmol/mL/min
[5]; 1 h after intake
  ACE-Activity Conventional assay: 12.1 ± 1.2 nmol/mL/min
[5]; 2 h after intake
  ACE-Activity Conventional assay: 4.5 ± 0.8 nmol/mL/min
[5]; 4 h after intake
  ACE-Activity Conventional assay: 3.0 ± 0.4 nmol/mL/min
[5]; 8 h after intake
  ACE-Activity Conventional assay: 3.7 ± 0.4 nmol/mL/min
[5]; 24 h after intake
  ACE-Activity Conventional assay: 11.2 ± 1.0 nmol/mL/min
